Test results published in patent US10350255B2, “Polygonum cuspidatum extracts” (priority 2015, dated 2019).
Like-named read-outs stand apart in the source and are kept apart here.

Key:
[1] = system: S. mutans; assay: Agar diffusion test (TSA, bored hole / paper disk), dark vs light; assay type: cell-based, Streptococcus mutans; conditions: for zone of inhibition at 5000 µg/mL: chlorhexidine control 5 mg/mL
[2] = system: S. aureus; assay: as above; assay type: cell-based, Staphylococcus aureus; conditions: for zone of inhibition at 5000 µg/mL: Staphylococcus aureus, chlorhexidine control 5 mg/mL
[3] = system: microorganisms; assay: Photodynamic inactivation by isolated fractions and commercial anthraquinones; assay type: cell-based; conditions: for Photodynamic effect of components isolated by fractionation: isolated by fractionation of the extract; for Order of photodynamic inactivation of microorganisms: commercial samples of anthraquinones
Text: The anthraquinones, or their glycosylated derivatives, could be responsible for the photosensitizing effect of the extract. […] Commercial samples of anthraquinones produced photodynamic inactivation of microorganisms in the order emodin>physcion>rhein. In some P. cuspidatum extracts, the proportions of emodin and physcion are between 0.51-0.65% and 0.24-0.27% by weight, respectively.

[4] = comparative test, samples at strength as labelled, dark
[5] = comparative test, samples at strength as labelled, light 36 J cm^-2
[6] = light-activated, extract 40 μg, components at their proportions found in the extract
[7] = light-activated, extract 40 μg, components at their proportions found in the extract, listed as Emodin 0.001%

[H]/N=C(\N/C(=N/[H])NCCCCCCNC(=N)NC(=N)Nc1ccc(Cl)cc1)Nc1ccc(Cl)cc1 [chlorhexidine, Chlorhexidine Digluconate]
zone of inhibition at 5000 µg/mL ([1]; Streptococcus mutans, dark, read-out: Inhibition zone, S. mutans, dark (reference)): 18 mm | zone of inhibition at 5000 µg/mL ([1]; Streptococcus mutans, light 35 J cm^-2, read-out: Inhibition zone, S. mutans, light (reference)): 18 mm | zone of inhibition at 5000 µg/mL ([2]; dark, read-out: Inhibition zone, S. aureus, dark (reference)): 18 mm | zone of inhibition at 5000 µg/mL ([2]; light 35 J cm^-2, read-out: Inhibition zone, S. aureus, light (reference)): 18 mm

Cc1cc(O)c2c(c1)C(=O)c1cc(O)cc(O[C@@H]3O[C@H](CO)[C@@H](O)[C@H](O)[C@H]3O)c1C2=O [anthraquinones B, Anthraglycoside B]
Photodynamic effect of components isolated by fractionation [3]: inactive

Cc1cc2nc3ccc(N(C)C)cc3[s+]c2cc1N.[Cl-] [TB 1%, Toluidine Blue 0]
Inhibition zone, S. mutans, Dark [1, 4]: 15 mm | Inhibition zone, S. mutans, Light [1, 5]: 15 mm | Inhibition zone, S. aureus, Dark [2, 4]: 15 mm | Inhibition zone, S. aureus, Light [2, 5]: 16 mm

Cc1cc(O)c2c(c1)C(=O)c1cc(O)cc(O)c1C2=O [Emodin]
zone of inhibition at 40 µg/disc ([1]; Streptococcus mutans, light or radiation study, higher concentrations: 20 μL of 2 mg mL^-1 = 40 μg, light 36 J cm^-2 (FIG. 14), read-out: Inhibition zone (photoactivity)): 10 mm | Inhibition zone, S. mutans, Light [1, 6]: 7 mm | Inhibition zone, S. mutans, Light [1, 7]: 7.0 mm | Inhibition zone, S. aureus, Light [2, 7]: 8.5 mm | Order of photodynamic inactivation of microorganisms [3]: emodin>physcion>rhein | Photodynamic effect of components isolated by fractionation [3]: greatest photodynamic effect

Oc1ccc(C=Cc2cc(O)cc(O)c2)cc1 [resveratrol, Resveratrol]
Antimicrobial activity in the dark ([1]; agar diffusion, dark (FIG. 14)): inactive | Antimicrobial activity with light activation ([1]; agar diffusion, light 36 J cm^-2 (FIG. 14)): inactive

COc1cc(O)c2c(c1)C(=O)c1cc(C)cc(O)c1C2=O [Physcion]
Inhibition zone, S. mutans, Light [1, 6]: inactive | Inhibition zone, S. aureus, Light ([2]; light-activated, extract 40 μg, components at their proportions found in the extract, listed as Physcion 0.001%): 8.5 mm | Order of photodynamic inactivation of microorganisms [3]: emodin>physcion>rhein

COc1cc(O[C@@H]2O[C@H](CO)[C@@H](O)[C@H](O)[C@H]2O)c2c(c1)C(=O)c1cc(C)cc(O)c1C2=O [anthraquinones A]
Photodynamic effect of components isolated by fractionation [3]: inactive
